Experimental data as given in US9266871B2, “Trifluoromethyl-substituted fused pyrimidines and their use” (BAYER PHARMA AKTIENGESELLSCHAFT, priority 2013, dated 2016).

What was measured:
aorta rings = assay: Vasorelaxant effect in vitro (phenylephrine-contracted aorta rings); details: Oryctolagus cuniculus; relaxation of phenylephrine-induced contraction, rabbit aorta rings
Method: B-1. Vasorelaxant Effect In Vitro
Rabbits are stunned by a blow to the neck and exsanguinated. The aorta is removed, freed from adhering tissue and divided into rings of a width of 1.5 mm. The rings are placed individually under an initial tension in 5 ml organ baths with Krebs-Henseleit solution which is at 37° C., is gassed with carbogen and has the following composition (in each case mM): sodium chloride: 119; potassium chloride: 4.8; calcium chloride dihydrate: 1; magnesium sulphate heptahydrate: 1.4; potassium dihydrogenphosphate: 1.2; sodium bicarbonate: 25; glucose: 10. The contractile force is determined with Statham UC2 cells, amplified and digitalized using A/D transducers (DAS-1802 HC, Keithley Instruments Munich), and recorded in parallel on linear recorders. To produce a contraction, phenylephrine is added to the bath cumulatively in increasing concentration. After several control cycles, the substance to be investigated is added in each further run in increasing dosage in each case, and the height of the contraction achieved is compared with the height of the contraction reached in the last preceding run. This is used to calculate the concentration needed to reduce the magnitude of the control value by 50% (IC50 value). The standard administration volume is 5 μl; the DMSO content in the bath solution corresponds to 0.1%.

[1] = target: T1, recombinant guanylate cyclase reporter cell line (Rattus norvegicus, UniProt P19686+P20595); assay: Effect on a recombinant guanylate cyclase reporter cell line; type: cell-based
T1 construct: expressed in transfected cells; host or cells: recombinant reporter cell line
T1 sequence (P19686 1-690): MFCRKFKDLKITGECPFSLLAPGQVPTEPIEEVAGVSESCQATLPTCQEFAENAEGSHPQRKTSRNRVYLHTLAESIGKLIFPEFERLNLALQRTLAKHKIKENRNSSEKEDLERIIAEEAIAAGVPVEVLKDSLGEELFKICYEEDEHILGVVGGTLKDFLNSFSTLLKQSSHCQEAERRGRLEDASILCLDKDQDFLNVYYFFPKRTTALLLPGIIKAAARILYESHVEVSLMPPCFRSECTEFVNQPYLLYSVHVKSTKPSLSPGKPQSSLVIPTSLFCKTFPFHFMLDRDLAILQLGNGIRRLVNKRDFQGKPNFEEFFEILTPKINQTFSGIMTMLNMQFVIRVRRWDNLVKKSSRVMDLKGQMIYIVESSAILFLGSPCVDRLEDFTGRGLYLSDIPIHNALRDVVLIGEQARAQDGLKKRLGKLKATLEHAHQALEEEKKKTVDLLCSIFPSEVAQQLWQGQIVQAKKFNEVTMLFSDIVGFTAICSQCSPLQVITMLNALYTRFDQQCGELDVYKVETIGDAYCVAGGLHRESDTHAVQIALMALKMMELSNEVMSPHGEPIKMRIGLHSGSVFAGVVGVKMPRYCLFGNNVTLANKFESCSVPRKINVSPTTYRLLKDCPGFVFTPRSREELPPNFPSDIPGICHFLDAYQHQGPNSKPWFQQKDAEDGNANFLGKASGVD
T1 sequence (P20595 1-619): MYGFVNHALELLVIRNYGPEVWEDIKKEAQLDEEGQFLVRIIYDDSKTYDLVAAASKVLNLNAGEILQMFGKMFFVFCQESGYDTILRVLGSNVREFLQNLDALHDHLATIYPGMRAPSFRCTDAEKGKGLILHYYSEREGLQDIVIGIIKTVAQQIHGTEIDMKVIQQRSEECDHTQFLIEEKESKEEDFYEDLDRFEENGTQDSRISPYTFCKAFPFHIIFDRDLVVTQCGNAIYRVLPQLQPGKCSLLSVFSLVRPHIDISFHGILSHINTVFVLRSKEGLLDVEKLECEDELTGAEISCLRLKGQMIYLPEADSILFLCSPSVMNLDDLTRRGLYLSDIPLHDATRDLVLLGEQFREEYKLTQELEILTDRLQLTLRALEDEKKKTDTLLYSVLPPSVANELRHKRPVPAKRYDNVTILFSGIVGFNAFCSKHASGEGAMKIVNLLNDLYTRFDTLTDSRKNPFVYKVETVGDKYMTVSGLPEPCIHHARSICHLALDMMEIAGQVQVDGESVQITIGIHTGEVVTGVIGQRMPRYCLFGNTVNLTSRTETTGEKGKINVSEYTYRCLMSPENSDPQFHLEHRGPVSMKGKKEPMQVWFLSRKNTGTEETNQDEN
Method: B-2. Effect on a Recombinant Guanylate Cyclase Reporter Cell Line
The cellular activity of the compounds according to the invention is determined using a recombinant guanylate cyclase reporter cell line, as described in F. Wunder et al., Anal. Biochem. 339, 104-112 (2005).

In the case of `C[C@@]1(C(F)(F)F)C(=O)Nc2nc(-c3nn(Cc4ncccc4F)c4ncc(F)cc34)nc(NCCC(F)(F)F)c21` (single isomer, unassigned) [Example 1-1], the IC50 (aorta rings) is reported as 265 nM and the “MEC (minimum effective concentration)” value [1] is reported as 0.1 µM.
With `C[C@]1(C(F)(F)F)C(=O)Nc2nc(-c3nn(Cc4ncccc4F)c4ncc(F)cc34)nc(NCCC(F)(F)F)c21` (single isomer, unassigned) [Example 1-2] the IC50 (aorta rings) was 237 nM and the “MEC (minimum effective concentration)” value [1] was 1.0 µM.
